# Measurements: US5571816A, “Pyrimidines” (Hoechst Aktiengesellschaft, priority 1992, dated 1996)
# Where a name gives a salt, the structure may show the parent alone. Read-outs that look alike come from different tables or passages of the source.
# Key:
# serum lipoproteins = assay: Effect on serum lipoproteins of normolipemic male rats in a subchronic experiment; assay type: in vivo; conditions: Rattus norvegicus, po, by stomach tube, 7 administrations; for change in vivo at 30 mg/kg: 30 mg/kg/day; for change in vivo at 10 mg/kg: 10 mg/kg/day
# Experimental: 3. In vivo, the increased LDL receptor activity in experimental animals is reflected by reduction in the lipoprotein fractions which can be metabolized by the LDL receptor (apoB/E receptor), i.e. a reduction in the LDL and VLDL levels is observed. The following test was carried out:
# Effect on serum lipoproteins of normolipemic male rats in a subchronic experiment
# Groups of in each case 10 male rats of the HOE: WISKf (SPF 71) strain with an initial weight above 180 g received once a day (in the morning) the test product or the comparison product in 1% aqueous ®Tylose MH 300 solution by stomach tube (0.5 ml/100 g of body weight); the control group in each case received only the vehicle. The last (7th) administration took place 24 hours before removal of blood and sacrifice. There was free access to food and water during the test. The food was withdrawn 24 hours before the removal of blood.
# The serum from all 10 rats in a group was pooled for the analysis of the serum lipoproteins. The serum lipoproteins were separated with a preparative ultracentrifuge (KONTRON TGA 65, Rotor BECKMAN 50.4 Ti).
# The following conditions specified by Koga, S., Horwitz, D. L., and Scanu, A. M., Journal of Lipid Research 10, 577 (1969) and Havel, R. J., Eder, H. A., and Bragdon, H. H., J. Clin. Invest. 34, 1345 (1955) were used to separate VLDL and LDL: 1. VLDL: Density<1.006, 40,000 rpm for 16 hours 2. LDL: Density 1.006-1.04, 40,000 rmp for 16 hours
# Test kits from BOEHRINGER/Mannheim were used for the enzymatic determination of cholesterol and triglycerides in the separated lipoprotein fractions (cf. Siedel, J., Schlumberger, H., Klose, S., Ziegenhorn, J. and Wahlefeld, A. W., J. Clin. Chem. Clin. Biochem. 19, 838 (1981) and Wahlefeld, A. W., in: H. O. Bergmeier: Methoden der enzymatischen Analyse (Methods of Enzymatic Analysis), 2nd edition, Volume II, Verlag Chemie 1974, page 1878). The proteins were determined by the method of Lowry (Lowry, O. H., Roseborough, N. H., Farr, A. L. and Randell, R. J., J. Biol. Chem. 193, 265 (1951)).
# Clofibrate was used as comparison product.
# [1] = Solubility in water of salts (and free bases); assay type: physicochemical; conditions: for solubility: water
# [2] = read-out: Serum LDL cholesterol, % change from control at end of treatment
# [3] = read-out: Serum LDL protein, % change from control at end of treatment
# [4] = read-out: Serum VLDL cholesterol, % change from control at end of treatment
# [5] = read-out: Serum VLDL protein, % change from control at end of treatment
# [6] = read-out: Serum VLDL triglycerides, % change from control at end of treatment
# [7] = Table 2, salts of compounds I, temp. by No. [°C]: 1 25.5, 2 23.0, 3 22.4, 4 22.4, 5 22.0, 6 25.0, 7 25.5, 8 25.5, 9 25.5, 10 23.5, 11 23.5, 12 25.0, 13 24.0, 14 23.0, 15 22.0, 16 24.5, 17 22.5, 18 22.0
# [8] = Table 2, salts of compounds I, temp. by No. [°C]: 1 25.5, 2 23.0, 3 22.4, 4 22.4, 5 22.0, 6 25.0, 7 25.5, 8 25.5, 9 25.5, 10 23.5, 11 23.5, 12 25.0, 13 24.0, 14 23.0, 15 22.0, 16 24.5, 17 22.5, 18 22.0, read-out: Solubility in water, Concentration in % by wt.
# [9] = Table 1, N-H analogs, temp. by No. [°C]: 1 25.0, 2 23.0, 3 26.2, 4 25.1, 5 25.2, 6 24.1, 7 24.5, 8 24.2, 9 24.2, 10 25.7, 11 25.8
# [10] = Table 1, N-H analogs, temp. by No. [°C]: 1 25.0, 2 23.0, 3 26.2, 4 25.1, 5 25.2, 6 24.1, 7 24.5, 8 24.2, 9 24.2, 10 25.7, 11 25.8, read-out: Solubility in water, Concentration in % by wt.
# [11] = Table 1, N-H analogs, temp. by No. [°C]: 1 25.0, 2 23.0, 3 26.2, 4 25.1, 5 25.2, 6 24.1, 7 24.5, 8 24.2, 9 24.2, 10 25.7, 11 25.8, read-out: Solubility in water, Molarity × 10^-3
# [12] = Table 2, salts of compounds I, temp. by No. [°C]: 1 25.5, 2 23.0, 3 22.4, 4 22.4, 5 22.0, 6 25.0, 7 25.5, 8 25.5, 9 25.5, 10 23.5, 11 23.5, 12 25.0, 13 24.0, 14 23.0, 15 22.0, 16 24.5, 17 22.5, 18 22.0, nitrate
SMILES,"1 part by mass dissolves in ... parts by H2O [1, 7] [parts by H2 O]","solubility [1, 8] [mg/mL]","1 part by mass dissolves in ... parts of H2O [1, 9]","solubility [1, 10] [mg/mL]","solubility [1, 11] [µM]",further results
"CCN(C(=O)c1cnc(N2CC(C)NC2=O)nc1N)c1cccc(C(F)(F)F)c1 (stereo not drawn) [Example 58, 4-amino-2-(4-methyl-2-oxo-1-imidazolidinyl)pyrimidine-5-carboxylic acid N-ethyl-N-(3-trifluoromethylphenyl)amide hydrochloride]",6.8,128,,,,change in vivo at 30 mg/kg (serum lipoproteins; [2]): 46%; change in vivo at 30 mg/kg (serum lipoproteins; [3]): -25%; change in vivo at 30 mg/kg (serum lipoproteins; [4]): -59%; change in vivo at 30 mg/kg (serum lipoproteins; [5]): -22%; change in vivo at 30 mg/kg (serum lipoproteins; [6]): -40%
CC(C)(C)CN(C(=O)c1cnc(N2CC(C)(C)NC2=O)nc1N)c1cccc(C(F)(F)F)c1 [Example 37],53.3,19.1,,,,change in vivo at 10 mg/kg (serum lipoproteins; [2]): -39%; change in vivo at 10 mg/kg (serum lipoproteins; [3]): -21%; change in vivo at 10 mg/kg (serum lipoproteins; [4]): -56%; change in vivo at 10 mg/kg (serum lipoproteins; [5]): -30%; change in vivo at 10 mg/kg (serum lipoproteins; [6]): -40%; change in vivo at 30 mg/kg (serum lipoproteins; [2]): -76%; change in vivo at 30 mg/kg (serum lipoproteins; [3]): -49%; change in vivo at 30 mg/kg (serum lipoproteins; [4]): -85%; change in vivo at 30 mg/kg (serum lipoproteins; [5]): -48%; change in vivo at 30 mg/kg (serum lipoproteins; [6]): -75%
"CN(C(=O)c1cnc(N2CCNC2=O)nc1N)c1cccc(C(F)(F)F)c1 [Example 64, 4-amino-2-(2-oxo-1-imidazolidinyl)pyrimidine-5-carboxylic acid N-methyl-N-(3-trifluoromethylphenyl)amide hydrochloride]",19.8,48.1,,,,change in vivo at 30 mg/kg (serum lipoproteins; [2]): -20%; change in vivo at 30 mg/kg (serum lipoproteins; [3]): -10%; change in vivo at 30 mg/kg (serum lipoproteins; [4]): -18%; change in vivo at 30 mg/kg (serum lipoproteins; [5]): -28%
"CC1NC(=O)N(c2ncc(C(=O)Nc3cccc(C(F)(F)F)c3)c(N)n2)C1C (stereo not drawn) [No. 11 (Table 1), reference compound]",,,277 parts of H2 O,3.6,8380,
"CCCC1(C)CN(c2ncc(C(=O)Nc3ccc(Cl)c(C(F)(F)F)c3)c(N)n2)C(=O)N1 (stereo not drawn) [No. 9 (Table 1), reference compound]",,,,1.3,2800,
"CC1(C)CN(c2ncc(C(=O)Nc3ccc(Cl)c(C(F)(F)F)c3)c(N)n2)C(=O)N1 [No. 5 (Table 1), reference compound]",,,,1,2030,
"CC1(C)CN(c2ncc(C(=O)Nc3cc(C(F)(F)F)ccc3Cl)c(N)n2)C(=O)N1 [No. 4 (Table 1), reference compound]",,,217 parts of H2 O,4.6,9910,
"CCN(C(=O)c1cnc(N2CC(C)(C)NC2=O)nc1N)c1cc(C(F)(F)F)ccc1F [Example 60, 4-amino-2-(4,4-dimethyl-2-oxo-1-imidazolidinyl)pyrimidine-5-carboxylic acid N-ethyl-N-(2-fluoro-5-trifluoromethylphenyl)amide nitrate]",,,,,,"1 part by mass dissolves in ... parts by H2O [1, 12]: 57.5 parts by H2 O; Solubility in water, Concentration in % by wt. [1, 12]: 1.71 % by wt.; solubility ([1]; temperature not stated, read-out: soluble in a concentration in water): 17 mg/mL"
CC1(C)CN(c2ncc(C(=O)N(c3cccc(C(F)(F)F)c3)C3CCCC3)c(N)n2)C(=O)N1 [No. 8 (Table 2)],60.6,16.2,,,,
"COc1ccc(C(F)(F)F)cc1NC(=O)c1cnc(N2CC(C)(C)NC2=O)nc1N [No. 6 (Table 1), reference compound]",,,75 parts of H2 O,13.2,28900,"solubility in water, in words ([1]; categories of the Deutsches Arzneibuch): sparingly soluble"
"CCCC1(C)CN(c2ncc(C(=O)Nc3cccc(C(F)(F)F)c3)c(N)n2)C(=O)N1 (stereo not drawn) [No. 10 (Table 1), reference compound]",,,255 parts of H2 O,3.9,8540,
"CCCCCN(C(=O)c1cnc(N2CC(C)(C)NC2=O)nc1N)c1cccc(C(F)(F)F)c1 [Example 47, 4-amino-2-(4,4-dimethyl-2-oxo-1-imidazolidinyl)pyrimidine-5-carboxylic acid N-pentyl-N-(3-trifluoromethylphenyl)amide hydrochloride]",51.3,18.7,,,,
"CCN(C(=O)c1cnc(N2CC(C)(C)NC2=O)nc1N)c1cccc(C(F)(F)F)c1 [Example 1, 4-amino-2-(4,4-dimethyl-2-oxo-1-imidazolidinyl)pyrimidine-5-carboxylic acid N-ethyl-N-(3-trifluoromethylphenyl)amide]",13.5,68.9,,,,
"CC1(C)CN(c2ncc(C(=O)Nc3cccc(C(F)(F)F)c3)c(N)n2)C(=O)N1 [No. 1 (Table 1), hydrochloride of 4-amino-2-(4,4-dimethylimidazolidin-2-on-1-yl)pyrimidine-5-carboxylic acid N-(3-trifluoromethylphenyl)amide, reference compound]",,,,0.4,930,"solubility ([1]; 23° C., read-out: 1 part by mass dissolves in parts of water (converted)): 0.4 mg/mL; solubility ([1]; 23° C., read-out: solution that can be prepared in water): 930 µM"
CC(C)CN(C(=O)c1cnc(N2CC(C)NC2=O)nc1N)c1cccc(C(F)(F)F)c1 (stereo not drawn) [Example 114],24.7,38.9,,,,
"CCCC1(C)CN(c2ncc(C(=O)Nc3cc(C(F)(F)F)ccc3Cl)c(N)n2)C(=O)N1 (stereo not drawn) [No. 8 (Table 1), reference compound]",,,781 parts of H2 O,1.3,2590,
